The text below walks through data of PubChem BioAssay AID1259407 (Chemical Carcinogenesis Research Information System (CCRIS), 2018).

This data set concerns CCRIS mutagenicity, Ames/micronucleus/aberration tests. In words: CCRIS mutagenicity studies.
[1] abbreviates: Test System: AMES SALMONELLA TYPHIMURIUM, Strain/Indicator: TA98, Metabolic Activation: NONE, Method: PREINCUBATION
[2] abbreviates: Test System: AMES SALMONELLA TYPHIMURIUM, Strain/Indicator: TA98, Metabolic Activation: NONE, Method: STANDARD PLATE.
Setting [3] is: Test System: AMES SALMONELLA TYPHIMURIUM, Strain/Indicator: TA98, Metabolic Activation: RAT, LIVER, S-9, AROCLOR 1254, Method: STANDARD PLATE.
Where [4] appears, read: Test System: AMES SALMONELLA TYPHIMURIUM, Strain/Indicator: TA100, Metabolic Activation: NONE, Method: PREINCUBATION
Where [5] appears, read: Test System: AMES SALMONELLA TYPHIMURIUM, Strain/Indicator: TA100, Metabolic Activation: NONE, Method: STANDARD PLATE.
The mark [6] stands for this setting: Test System: AMES SALMONELLA TYPHIMURIUM, Strain/Indicator: TA100, Metabolic Activation: RAT, LIVER, S-9, AROCLOR 1254, Method: STANDARD PLATE.
Where [7] appears, read: Test System: AMES SALMONELLA TYPHIMURIUM, Strain/Indicator: TA102, Metabolic Activation: NONE, Method: PREINCUBATION
[8] abbreviates: Test System: AMES SALMONELLA TYPHIMURIUM, Strain/Indicator: TA104, Metabolic Activation: NONE, Method: PREINCUBATION
The mark [9] stands for this setting: Test System: AMES SALMONELLA TYPHIMURIUM, Strain/Indicator: TA1535, Metabolic Activation: NONE, Method: PREINCUBATION
[10] abbreviates: Test System: AMES SALMONELLA TYPHIMURIUM, Strain/Indicator: TA1537, Metabolic Activation: NONE, Method: PREINCUBATION

SMILES strings stand for the structures. Activity calls are given as the source filed them. No rule for the calls is given here.

For the compound `CCc1cn([C@H]2C[C@H](O)[C@@H](CO)O2)c(=O)[nH]c1=O`, the mutagenic call is “inactive; negative” (Test System: AMES SALMONELLA TYPHIMURIUM, Strain/Indicator: TA97, Metabolic Activation: NONE, Method: PREINCUBATION); “inactive; negative” (Test System: AMES SALMONELLA TYPHIMURIUM, Strain/Indicator: TA97, Metabolic Activation: RAT, LIVER, S-9, AROCLOR 1254, Method: PREINCUBATION); “inactive; negative” under setting [1]; “inactive; negative” under setting [2]; “inactive; negative” (Test System: AMES SALMONELLA TYPHIMURIUM, Strain/Indicator: TA98, Metabolic Activation: RAT, LIVER, S-9, AROCLOR 1254, Method: PREINCUBATION); “inactive; negative” under setting [3]. For the same compound, the mutagenic call is “inactive; negative” under setting [4]; “inactive; negative” under setting [5]; “inactive; negative” (Test System: AMES SALMONELLA TYPHIMURIUM, Strain/Indicator: TA100, Metabolic Activation: RAT, LIVER, S-9, AROCLOR 1254, Method: PREINCUBATION); “inactive; negative” under setting [6]; “inactive; negative” under setting [7]; “inactive; negative” (Test System: AMES SALMONELLA TYPHIMURIUM, Strain/Indicator: TA102, Metabolic Activation: RAT, LIVER, S-9, AROCLOR 1254, Method: PREINCUBATION). In addition, the mutagenic call was “inactive; negative” under setting [8]; “inactive; negative” (Test System: AMES SALMONELLA TYPHIMURIUM, Strain/Indicator: TA104, Metabolic Activation: RAT, LIVER, S-9, AROCLOR 1254, Method: PREINCUBATION); “inactive; negative” under setting [9]; “inactive; negative” (Test System: AMES SALMONELLA TYPHIMURIUM, Strain/Indicator: TA1535, Metabolic Activation: RAT, LIVER, S-9, AROCLOR 1254, Method: PREINCUBATION); “inactive; negative” under setting [10]; “inactive; negative” (Test System: AMES SALMONELLA TYPHIMURIUM, Strain/Indicator: TA1537, Metabolic Activation: NONE, Method: STANDARD PLATE). The mutagenic call runs as follows: (Test System: AMES SALMONELLA TYPHIMURIUM, Strain/Indicator: TA1537, Metabolic Activation: RAT, LIVER, S-9, AROCLOR 1254, Method: PREINCUBATION) “inactive; negative”; (Test System: AMES SALMONELLA TYPHIMURIUM, Strain/Indicator: TA1537, Metabolic Activation: RAT, LIVER, S-9, AROCLOR 1254, Method: STANDARD PLATE) “inactive; negative”; (Test System: AMES SALMONELLA TYPHIMURIUM, Strain/Indicator: TA1538, Metabolic Activation: NONE, Method: PREINCUBATION) “inactive; negative”; (Test System: AMES SALMONELLA TYPHIMURIUM, Strain/Indicator: TA1538, Metabolic Activation: RAT, LIVER, S-9, AROCLOR 1254, Method: PREINCUBATION) “inactive; negative”; (Test System: CHINESE HAMSTER V-79, Strain/Indicator: V-79/8-AZAGUANINE, Metabolic Activation: NONE) “inactive; negative”.

Take `O=[N+]([O-])c1ccnc2ccccc12`: the mutagenic call is “active; positive” (Test System: AMES SALMONELLA TYPHIMURIUM, Strain/Indicator: TA1538, Metabolic Activation: RAT, LIVER, S-9, KC500 OR PHENOBARBITAL, Method: LIQUID SUSPENSION) and “active; positive” (Test System: UDS RODENT PRIMARY CELLS, Strain/Indicator: THY INCORP (NON-S-PHASE), Metabolic Activation: NONE, Method: AUTORADIOGRAPHY).

In the case of `O=C(O)c1ccc(Cl)c([N+](=O)[O-])c1`, the mutagenic call is “active; positive” under setting [1]; “inactive; negative” (Test System: AMES SALMONELLA TYPHIMURIUM, Strain/Indicator: TA98, Metabolic Activation: RAT, LIVER, S-9, KANECHLOR 500, Method: PREINCUBATION); “active; positive” under setting [4]; “active; positive” (Test System: AMES SALMONELLA TYPHIMURIUM, Strain/Indicator: TA100, Metabolic Activation: RAT, LIVER, S-9, KANECHLOR 500, Method: PREINCUBATION).

Consider `CCCCCCCCBr`, for which the mutagenic call is, setting by setting: under setting [1], “inactive; negative”; (Test System: AMES SALMONELLA TYPHIMURIUM, Strain/Indicator: TA98, Metabolic Activation: RAT LIVER S-9, PHENOBARBITAL AND BETA-NAPHTHOFLAVONE, Method: PREINCUBATION) “inactive; negative”; under setting [4], “inactive; negative”; (Test System: AMES SALMONELLA TYPHIMURIUM, Strain/Indicator: TA100, Metabolic Activation: RAT LIVER S-9, PHENOBARBITAL AND BETA-NAPHTHOFLAVONE, Method: PREINCUBATION) “inactive; negative”; under setting [7], “inactive; negative”; (Test System: AMES SALMONELLA TYPHIMURIUM, Strain/Indicator: TA102, Metabolic Activation: RAT LIVER S-9, PHENOBARBITAL AND BETA-NAPHTHOFLAVONE, Method: PREINCUBATION) “inactive; negative”. For the same compound, the mutagenic call by setting is: under setting [8], “inactive; negative”; (Test System: AMES SALMONELLA TYPHIMURIUM, Strain/Indicator: TA104, Metabolic Activation: RAT LIVER S-9, PHENOBARBITAL AND BETA-NAPHTHOFLAVONE, Method: PREINCUBATION) “inactive; negative”; under setting [9], “inactive; negative”; (Test System: AMES SALMONELLA TYPHIMURIUM, Strain/Indicator: TA1535, Metabolic Activation: RAT LIVER S-9, PHENOBARBITAL AND BETA-NAPHTHOFLAVONE, Method: PREINCUBATION) “inactive; negative”; under setting [10], “inactive; negative”; (Test System: AMES SALMONELLA TYPHIMURIUM, Strain/Indicator: TA1537, Metabolic Activation: RAT LIVER S-9, PHENOBARBITAL AND BETA-NAPHTHOFLAVONE, Method: PREINCUBATION) “inactive; negative”. The mutagenic call by setting is: (Test System: E.COLI, Strain/Indicator: WP2UVRA/PKM101, Metabolic Activation: NONE, Method: PREINCUBATION) “inactive; negative”; (Test System: E.COLI, Strain/Indicator: WP2UVRA/PKM101, Metabolic Activation: RAT LIVER S-9, PHENOBARBITAL AND BETA-NAPHTHOFLAVONE, Method: PREINCUBATION) “inactive; negative”; (Test System: E.COLI, Strain/Indicator: WP2UVRA, Metabolic Activation: NONE, Method: PREINCUBATION) “inactive; negative”; (Test System: E.COLI, Strain/Indicator: WP2UVRA, Metabolic Activation: RAT LIVER S-9, PHENOBARBITAL AND BETA-NAPHTHOFLAVONE, Method: PREINCUBATION) “inactive; negative”.

In the case of `CCOc1cc(N=Nc2ccc(N(CC)CC)cc2)ccc1N=Nc1c(S(=O)(=O)O)cc2ccc(N)cc2c1O`, the mutagenic call was “inactive; negative” under setting [2]; “active; positive” under setting [3]; “inactive; negative” under setting [5]; “inactive; negative” under setting [6]; “inactive; negative” (Test System: AMES SALMONELLA TYPHIMURIUM, Strain/Indicator: TA1538, Metabolic Activation: NONE, Method: STANDARD PLATE); “active; positive” (Test System: AMES SALMONELLA TYPHIMURIUM, Strain/Indicator: TA1538, Metabolic Activation: RAT, LIVER, S-9, AROCLOR 1254, Method: STANDARD PLATE).

Regarding `N=C(N)c1ccc(-c2cc3ccc(C(=N)N)cc3s2)cc1`, the mutagenic call is, setting by setting: under setting [2], “inactive; negative”; (Test System: AMES SALMONELLA TYPHIMURIUM, Strain/Indicator: TA98, Metabolic Activation: RAT, LIVER, S-9, PHENOBARBITAL, Method: STANDARD PLATE) “inactive; negative”; under setting [5], “inactive; negative”; (Test System: AMES SALMONELLA TYPHIMURIUM, Strain/Indicator: TA100, Metabolic Activation: RAT, LIVER, S-9, PHENOBARBITAL, Method: STANDARD PLATE) “inactive; negative”.

As to `O=[N+]([O-])c1ccc2[nH]c3c([N+](=O)[O-])cccc3c2c1`, the mutagenic call was “active; positive” (Test System: AMES SALMONELLA TYPHIMURIUM, Strain/Indicator: TA98(NR), Metabolic Activation: NONE, Method: STANDARD PLATE); “active; positive” (Test System: AMES SALMONELLA TYPHIMURIUM, Strain/Indicator: TA98(NR), Metabolic Activation: RAT, LIVER, S-9, AROCLOR 1254, Method: STANDARD PLATE); “active; positive” under setting [2]; “active; positive” under setting [3].
